Experimental data from patent US12643887B2, “Heterocyclic derivatives with cardiomyocyte proliferation activity for treatment of heart diseases” (Tongji University, priority 2019, dated 2026).

How the values were obtained:
human GSK3 beta = biological target: T1, human GSK3 beta (Homo sapiens, UniProt P49841); experiment: GSK3 beta enzyme assay (ADP-Glo); format: biochemical; conditions: ATP 25 μM, read-out: GSK3b IC50
T1 construct: Recombinant full-length human GSK3 beta (expressed in Sf9 insect cells with an N-terminal His tag); His (N); purchased SignalChem G09-10H; host or cells: Sf9 insect cells
T1 sequence (P49841 whole entry): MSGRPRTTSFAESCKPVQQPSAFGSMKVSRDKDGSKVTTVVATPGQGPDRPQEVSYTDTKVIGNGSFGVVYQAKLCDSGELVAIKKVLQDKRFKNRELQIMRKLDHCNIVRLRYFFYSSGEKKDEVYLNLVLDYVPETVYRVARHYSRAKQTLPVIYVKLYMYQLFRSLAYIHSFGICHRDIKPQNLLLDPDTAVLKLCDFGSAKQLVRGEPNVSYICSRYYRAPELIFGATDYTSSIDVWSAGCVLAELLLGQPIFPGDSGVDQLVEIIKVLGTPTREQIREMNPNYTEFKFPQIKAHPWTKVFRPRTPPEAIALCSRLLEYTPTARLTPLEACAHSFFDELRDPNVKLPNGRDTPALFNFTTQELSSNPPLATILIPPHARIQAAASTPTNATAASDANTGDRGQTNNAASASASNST
Experimental: 1. GSK3 Beta Enzyme Assay
The ability of compounds to inhibit human GSK3 beta kinase activities was determined using a commercially available ADP-Glo™ Kinase Assay kit (Promega, Cat #V9102) according to the manufacturer's protocol. The ADP-Glo™ Kinase Assay is a luminescent ADP detection assay that provides a universal, homogeneous, high-throughput screening method to measure kinase activity by quantifying the amount of ADP produced during a kinase reaction. The ADP-Glo™ Kinase Assay can be used to monitor the activity of virtually any ADP-generating enzymes (e.g., kinases or ATPases).
Recombinant full-length human GSK3 beta (expressed in Sf9 insect cells with an N-terminal His tag) was purchased from SignalChem (Cat #G09-10H). The GSK3 substrate peptide (sequence: […](pS)EDEEE) was purchased from SignalChem (Cat #G50-58). This assay, run in a 384-well plate format, is a generic method for measuring kinase activities using an ADP-Glo Kinase Assay Kit. The basic assay procedure involves two steps: (1) Enzymatic step: inhibitors are incubated with the kinase and then ATP (included in the ADP-Glo Kinase Assay Kit) and the GSK3 substrate peptide are added to start the enzymatic reaction; (2) Detection step: after the kinase reaction, first ADP-Glo™ Reagent is added to terminate the kinase reaction and deplete the remaining ATP. Second, the Kinase Detection Reagent is added to simultaneously convert ADP to ATP and allow the newly synthesized ATP to be measured using a luciferase/luciferin reaction. The light generated is measured using a luminometer.
(§1) Briefly, GSK3 beta (4 nM) in the enzymatic buffer solutions (40 mM Tris, pH 7.5, 20 mM MgCl2, 0.1 mg/ml BSA, 50 μM DTT) were mixed with various concentrations of inhibitors (dissolved in 100% DMSO). These solutions were incubated for 30 minutes at 25° C., and subsequently a mixture of substrate peptide and ATP was added with the final peptide and ATP concentrations at 13 μM and 25 μM, respectively. The final reaction mixture of enzyme-substrate-ATP-compound was incubated for 60 minutes at 25° C.
Afterwards ADP-Glo™ Reagent was added and the mixture was incubated at 25° C. for 60 minutes. Then Kinase Detection Reagent was added and the final mixture was incubated at 25° C. for 60 minutes. The luminescence signal of the final solution was measured on an Envision instrument (PerkinElmer). The percent (%) inhibition at each concentration of a compound is calculated relative to the luminescence signal in the Max and Min control wells contained within each assay plate. […] The concentrations and percent inhibition values for a test compound are plotted and the concentration of the compound required to achieve 50% inhibition (IC50) is determined with a four-parameter logistic dose response equation.

human HIPK2 = biological target: T2, human HIPK2 (Homo sapiens, UniProt Q9H2X6); experiment: HIPK2 enzyme assay (ADP-Glo); format: biochemical; conditions: ADP-Glo, ATP 5 μM; read-out: HIPK2 IC50
T2 construct: Recombinant human HIPK2 (1-640); GST (N); purchased SignalChem H04-11BG; host or cells: Sf9 insect cells
T2 sequence (Q9H2X6 1-640): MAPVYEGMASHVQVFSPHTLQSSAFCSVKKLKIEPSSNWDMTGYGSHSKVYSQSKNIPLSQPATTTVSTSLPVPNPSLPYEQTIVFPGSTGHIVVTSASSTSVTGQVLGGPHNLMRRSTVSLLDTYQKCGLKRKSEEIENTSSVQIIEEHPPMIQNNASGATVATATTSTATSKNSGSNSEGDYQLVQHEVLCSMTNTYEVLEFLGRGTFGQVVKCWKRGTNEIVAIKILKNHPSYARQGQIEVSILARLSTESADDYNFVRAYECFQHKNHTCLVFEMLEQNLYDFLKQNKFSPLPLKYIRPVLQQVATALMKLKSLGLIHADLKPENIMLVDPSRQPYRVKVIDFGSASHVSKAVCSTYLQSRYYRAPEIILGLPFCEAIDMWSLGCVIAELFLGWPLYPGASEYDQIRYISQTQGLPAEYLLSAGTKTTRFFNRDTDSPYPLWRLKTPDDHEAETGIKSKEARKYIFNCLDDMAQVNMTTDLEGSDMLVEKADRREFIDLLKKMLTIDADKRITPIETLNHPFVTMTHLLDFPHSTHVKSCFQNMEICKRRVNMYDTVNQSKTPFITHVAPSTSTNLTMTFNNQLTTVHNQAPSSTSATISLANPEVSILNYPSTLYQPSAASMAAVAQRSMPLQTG
Experimental: The ability of compounds to inhibit human HIPK2 kinase activities was determined using a commercially available ADP-Glo™ Kinase Assay kit (Promega, Cat #V9102) according to the manufacturer's protocol.
Recombinant human HIPK2 (1-640) (expressed in Sf9 insect cells with an N-terminal GST tag) was purchased from SignalChem (Cat #H04-11BG). Recombinant full length human MBP (expressed in E. Coli cells with an N-terminal GST tag) was purchased from SignalChem (Cat #M42-54G). This assay, run in a 384-well plate format, is a generic method for measuring kinase activities using an ADP-Glo Kinase Assay Kit. The basic assay procedure involves two steps: (1) Enzymatic step: inhibitors are incubated with the kinase and then ATP (included in the ADP-Glo Kinase Assay Kit) and the MBP protein are added to start the enzymatic reaction; (2) Detection step: after the kinase reaction, first ADP-Glo™ Reagent is added to terminate the kinase reaction and deplete the remaining ATP. Second, the Kinase Detection Reagent is added to simultaneously convert ADP to ATP and allow the newly synthesized ATP to be measured using a luciferase/luciferin reaction. The light generated is measured using a luminometer.
as §1, with “Briefly, HIPK2 (1” for “Briefly, GSK3 beta (4”, “at 0.05 mg/ml” for “at 13 μM”, “and 5” for “and 25”, “for 90” for “for 60”
Afterwards ADP-Glo™ Reagent was added and the mixture was incubated at 25° C. for 60 minutes. Then Kinase Detection Reagent was added, and the final mixture was incubated at 25° C. for 60 minutes. The luminescence signal of the final solution was measured on an Envision instrument (PerkinElmer). The percent (%) inhibition at each concentration of a compound is calculated relative to the luminescence signal in the Max and Min control wells contained within each assay plate. […] The concentrations and percent inhibition values for a test compound are plotted and the concentration of the compound required to achieve 50% inhibition (IC50) is determined with a four-parameter logistic dose response equation.

Structure (SMILES): O=C1NC(Nc2ccccc2)=N/C1=C\c1ccc2[nH]cnc2c1 [Example 26, (Z)-5-((1H-benzo[d]imidazol-5-yl)methylene)-2-(phenylamino)-3,5-dihydro-4H-imidazol-4-one]
- IC50 (human GSK3 beta): 0.1 to 1 µM
- IC50 (human HIPK2): 0.1 to 1 µM

Structure (SMILES): O=C(O)CCN(C1=N/C(=C\c2ccc3c(c2)OCO3)C(=O)N1)c1ccccc1 [Example 27, (Z)-3-((4-(benzo[d][1,3]dioxol-5-ylmethylene)-5-oxo-4,5-dihydro-1H-imidazol-2-yl)(phenyl)amino)propanoic acid]
- IC50 (human GSK3 beta): > 10 µM
- IC50 (human HIPK2): 1 to 10 µM

Structure (SMILES): CN(Cc1ccccc1)C1=N/C(=C\c2ccc3ncsc3c2)C(=O)N1 [Example 28, (Z)-5-(benzo[d]thiazol-6-ylmethylene)-2-(benzyl(methyl)amino)-3,5-dihydro-4H-imidazol-4-one]
- IC50 (human GSK3 beta): 1 to 10 µM
- IC50 (human HIPK2): 1 to 10 µM

Structure (SMILES): O=C1NC(NCCN2CCOCC2)=N/C1=C\c1ccc2ncsc2c1 [Example 29, (Z)-5-(benzo[d]thiazol-6-ylmethylene)-2-((2-morpholinoethyl)amino)-3,5-dihydro-4H-imidazol-4-one]
- IC50 (human GSK3 beta): 1 to 10 µM
- IC50 (human HIPK2): 1 to 10 µM

Structure (SMILES): CN(C1=N/C(=C\c2ccc3[nH]cnc3c2)C(=O)N1)c1ccccc1 [Example 30, (Z)-5-((1H-benzo[d]imidazol-5-yl)methylene)-2-(methyl(phenyl)amino)-3,5-dihydro-4H-imidazol-4-one]
- IC50 (human GSK3 beta): > 10 µM
- IC50 (human HIPK2): > 10 µM

Structure (SMILES): O=C1NC(NCc2ccccc2)=N/C1=C\c1ccc2ncsc2c1 [Example 31, (Z)-5-(benzo[d]thiazol-6-ylmethylene)-2-(benzylamino)-3,5-dihydro-4H-imidazol-4-one]
- IC50 (human GSK3 beta): 1 to 10 µM
- IC50 (human HIPK2): 0.1 to 1 µM

Structure (SMILES): CN(CCN1CCOCC1)C1=N/C(=C\c2ccc3ncsc3c2)C(=O)N1 [Example 32, (Z)-5-(benzo[d]thiazol-6-ylmethylene)-2-(methyl(2-morpholinoethyl)amino)-3,5-dihydro-4H-imidazol-4-one]
- IC50 (human GSK3 beta): 1 to 10 µM
- IC50 (human HIPK2): > 10 µM

Structure (SMILES): CN(CC1CC1)C1=N/C(=C\c2ccc3ncsc3c2)C(=O)N1 [Example 33, (Z)-5-(benzo[d]thiazol-6-ylmethylene)-2-((cyclopropylmethyl)(methyl)amino)-3,5-dihydro-4H-imidazol-4-one]
- IC50 (human GSK3 beta): > 10 µM
- IC50 (human HIPK2): 1 to 10 µM

Structure (SMILES): O=C1NC(NCC2CC2)=N/C1=C\c1ccc2ncsc2c1 [Example 34, (Z)-5-(benzo[d]thiazol-6-ylmethylene)-2-((cyclopropylmethyl)amino)-3,5-dihydro-4H-imidazol-4-one]
- IC50 (human GSK3 beta): 1 to 10 µM
- IC50 (human HIPK2): 1 to 10 µM

Structure (SMILES): O=C1NC(N(Cc2ccccc2)c2ccccc2)=N/C1=C\c1ccc2[nH]cnc2c1 [Example 35, (Z)-5-((1H-benzo[d]imidazol-5-yl)methylene)-2-(benzyl(phenyl)amino)-3,5-dihydro-4H-imidazol-4-one]
- IC50 (human GSK3 beta): > 10 µM
- IC50 (human HIPK2): > 10 µM

Structure (SMILES): NC(=O)CCN(C1=N/C(=C\c2ccc3c(c2)OCO3)C(=O)N1)c1ccccc1 [Example 36, (Z)-3-((4-(benzo[d][1,3]dioxol-5-ylmethylene)-5-oxo-4,5-dihydro-1H-imidazol-2-yl)(phenyl)amino)propanamide]
- IC50 (human GSK3 beta): > 10 µM
- IC50 (human HIPK2): > 10 µM

Structure (SMILES): CN(C1=N/C(=C\c2ccc3c(c2)OCO3)C(=O)N1)c1ccc(N)cc1 [Example 37, (Z)-2-((4-aminophenyl)(methyl)amino)-5-(benzo[d][1,3]dioxol-5-ylmethylene)-3,5-dihydro-4H-imidazol-4-one]
- IC50 (human GSK3 beta): > 10 µM
- IC50 (human HIPK2): > 10 µM

Structure (SMILES): COc1ccc(N(C)C2=N/C(=C\c3ccc4ncsc4c3)C(=O)N2)cc1 [Example 38, (Z)-5-(benzo[d]thiazol-6-ylmethylene)-2-((4-methoxyphenyl)(methyl)amino)-3,5-dihydro-4H-imidazol-4-one]
- IC50 (human GSK3 beta): > 10 µM
- IC50 (human HIPK2): 1 to 10 µM

Structure (SMILES): O=C1NC(N(CC2CC2)c2ccccc2)=N/C1=C\c1ccc2c(c1)OCCO2 [Example 39, (Z)-2-((cyclopropylmethyl)(phenyl)amino)-5-((2,3-dihydrobenzo[b][1,4]dioxin-6-yl)methylene)-3,5-dihydro-4H-imidazol-4-one]
- IC50 (human GSK3 beta): > 10 µM
- IC50 (human HIPK2): > 10 µM

Structure (SMILES): O=C1NC(Nc2ccc(Cl)cc2)=N/C1=C\c1ccc2ncsc2c1 [Example 40, (Z)-5-(benzo[d]thiazol-6-ylmethylene)-2-((4-chlorophenyl)amino)-3,5-dihydro-4H-imidazol-4-one]
- IC50 (human GSK3 beta): > 10 µM
- IC50 (human HIPK2): 1 to 10 µM

Structure (SMILES): O=C1NC(N(Cc2ccccc2)c2ccccc2)=N/C1=C\c1ccc2ncsc2c1 [Example 41, (Z)-5-(benzo[d]thiazol-6-ylmethylene)-2-(benzyl(phenyl)amino)-3,5-dihydro-4H-imidazol-4-one]
- IC50 (human GSK3 beta): 1 to 10 µM
- IC50 (human HIPK2): 1 to 10 µM

Structure (SMILES): O=C1/C(=C/c2ccc3ncsc3c2)N=C(N(Cc2ccccc2)c2ccccc2)N1Cc1ccccc1 [Example 42, (Z)-5-(benzo[d]thiazol-6-ylmethylene)-3-benzyl-2-(benzyl(phenyl)amino)-3,5-dihydro-4H-imidazol-4-one]
- IC50 (human GSK3 beta): > 10 µM
- IC50 (human HIPK2): > 10 µM

Structure (SMILES): CN(C1=N/C(=C\c2ccc3ncsc3c2)C(=O)N1)c1ccc([N+](=O)[O-])cc1 [Example 43, (Z)-5-(benzo[d]thiazol-6-ylmethylene)-2-(methyl(4-nitrophenyl)amino)-3,5-dihydro-4H-imidazol-4-one]
- IC50 (human GSK3 beta): > 10 µM
- IC50 (human HIPK2): > 10 µM

Structure (SMILES): CN(C1=N/C(=C\c2ccc3ncsc3c2)C(=O)N1)c1ccc(N)cc1 [Example 44, (Z)-2-((4-aminophenyl)(methyl)amino)-5-(benzo[d]thiazol-6-ylmethylene)-3,5-dihydro-4H-imidazol-4-one]
- IC50 (human GSK3 beta): 1 to 10 µM
- IC50 (human HIPK2): 1 to 10 µM

Structure (SMILES): CC(C)NC1=N/C(=C\c2ccc3ncsc3c2)C(=O)N1C [Example 45, (Z)-5-(benzo[d]thiazol-6-ylmethylene)-2-(isopropylamino)-3-methyl-3,5-dihydro-4H-imidazol-4-one]
- IC50 (human GSK3 beta): 1 to 10 µM
- IC50 (human HIPK2): 1 to 10 µM

Structure (SMILES): Cn1cnc2ccc(/C=C3\N=C(Nc4ccccc4)NC3=O)cc21 [Example 46, (Z)-5-((1-methyl-1H-benzo[d]imidazol-6-yl)methylene)-2-(phenylamino)-3,5-dihydro-4H-imidazol-4-one]
- IC50 (human GSK3 beta): 0.1 to 1 µM
- IC50 (human HIPK2): 0.1 to 1 µM

Structure (SMILES): O=C1NC(Nc2ccc3ncsc3c2)=N/C1=C\c1ccc2c(c1)OCO2 [Example 47, (Z)-5-(benzo[d][1,3]dioxol-5-ylmethylene)-2-(benzo[d]thiazol-6-ylamino)-3,5-dihydro-4H-imidazol-4-one]
- IC50 (human GSK3 beta): > 10 µM
- IC50 (human HIPK2): > 10 µM
